Assay results reported in patent US5254566A, “Decahydroquinoline compounds” (Roussel Uclaf, priority 1991, dated 1993).
Structures can show the parent of a compound that is named as a salt.

Columns and labels:
[1] = tested on: Plasmodium falciparum FCC2 strain sensitive to chloroquine; experiment: Anti-paludal activity in vitro: inhibition of proliferation in continuous culture, FCC2 strain; format: cell-based; details: parasitemia relative to controls, incubation 48 hours, RPS 10 medium, 5% CO2, read-out: ED50 (FCC2 strain sensitive to chloroquine)
Experimental: (§1) 2) Test for determining the anti-paludal activity in vitro
(§2) The culturing of Plasmodium falciparum "in vitro" was carried out in cupulas on polystyrene plates used for tissue culture. It was carried out at 37° C. in a CO2 oven by the technique of TRAGER et al (1976-1978) on a modified RPMI 1640 medium (AZOULAY et al 1983) buffered with a mixture of HEPES buffer (40 m.moles/l), glucose (4 g/l) and 10 percent human serum. The anti-malarial activity "in vitro" of the different products tested was studied on two different strains of Plasmodium falciparum, namely an FCC2 strain sensitive to chloroquine and an FZ strain resistant to chloroquine (R3 type resistance). […]
(§3) 0.7 ml of the globular suspension was deposited in each cupula and each concentration of chosen product was tested on 3 cupulas. […] After an incubation time of 48 hours without renewing the medium in a steam chest with a CO2 content of 5%, the parasitemia content of each cupula was evaluated.
(§4) To do this, the canisters were removed from the steam chest and were left for 10 minutes at rest under a hood with laminar flux. […] On these crush preparations, fixed and colored, the different forms of the parasite were counted for 2000 to 3000 red blood corpuscles per plate. The results were expressed as the percentage of proliferation relative to the controls. […]

[2] = tested on: Plasmodium falciparum FZ strain resistant to chloroquine; experiment: Anti-paludal activity in vitro: inhibition of proliferation in continuous culture, FZ strain; format: cell-based; details: R3 type resistance, parasitemia relative to controls, incubation 48 hours, RPS 10 medium, 5% CO2, read-out: ED50 (FZ strain resistant to chloroquine)
Experimental: as §1, §2, §3, §4

IC50 [1]: 0.35 µg/mL
IC50 [2]: 0.34 µg/mL
SMILES: Clc1ccc2c(N3CCC[C@@H]4CCC[C@@H](N5CCCC5)[C@@H]43)ccnc2c1 (relative stereo) [Example 2, (4a α, 8α, 8aα) (±) 1-(7-chloro-4-quinolinyl)-decahydro-8-(1-pyrrolidinyl)-quinoline dihydrochloride]
